{"source": "patent US20190151390A1", "about": "“PERILLA EXTRACT COMPOSITION” (INQPHARM GROUP SDN BHD, priority 2016, published 2019)", "system": "HMC-1 cells", "test": "Mast cell test: histamine release from IgE/anti-IgE stimulated HMC-1 cells, ELISA of supernatant", "type": "cell-based", "conditions": "for Histamine reduction (%): compared to respective vehicle control; for Histamine (ng/ml) mean ± SD (n = 3): HMC-1 cells, supernatant ELISA", "procedure": "Mast cell lines, i.e. HMC1 cells (provided by Dr Joseph H. Butterfield; Mayo Clinic, Rochester, Minn., USA), were cultured in Isocove's Modified Dulbecco's Medium (IMDM) containing 10% Fetal Bovine Seum (FBS), 2 mM L-glutamine, 50 μM 2-mercaptoethanol, 100 U/mL penicillin and 100 μg/mL streptomycin. Cells were maintained at 37° C. in 5% CO2 in a humidified atmosphere. Percentage of living cells was determined by trypan blue staining. A 1:10 dilution with 50 μl cell suspension and 450 μl trypan blue was prepared and the number of living and dead cells was counted in a hemocytometer. 10^6 living cells were transferred into safe-lock Eppendorf tubes. Cell suspensions were centrifuged (200 g, 5 min) and supernatant was discarded. The effect of perilla oil, sesame oil and a combination of perilla oil and sesame oil (1:1 ratio) in the vehicle Kolliphor ELP (polyoxyl-35 hydrogenated castor oil) was determined. The positive control Cromolyn in phosphate buffer saline (PBS), the vehicles PBS and ELP were also tested as controls. After adding 100 μl IgE (100 ng/ml in PBS or ELP) to the cell pellets, cells were incubated for 12 hours over night, at 37° C. Cells were then incubated for 2 hours, at 37° C. with two different concentrations of compounds, i.e. 250 μg/ml and 500 μg/ml. After centrifugation (200 g, 5 min) supernatant was discarded and cell pellet was again incubated for 1 hour, at 37° C. with 100 μl anti-IgE (1 μg/ml in PBS or ELP). For the final incubation time of 6 hours, at 37° C., 300 μl HMC1 media was added. Cells were again centrifuged (200 g, 5 min) and supernatant was collected and stored as 300 μl aliquots at −20° C. for ELISA measurements. Cell pellets were resuspended in 100 μl HMC1 media for determining cell viability. The concentration of histamine in the collected supernatant was determined by ELISA, using a kit obtained from IBL International according to the manufacturer's guidelines. Each sample was measured twice. Due to expected measuring limits, vehicle (PBS, ELP) treated samples were diluted 1:2. Statistical analysis was performed with GraphPad Prism (Version 5.01) software (GraphPad Software Inc., San Diego, Calif., USA) using the unpaired two-tailed Students t test. A P value of less than 0.05 was considered statistically significant."}
{"smiles": "O=C(O)c1cc(=O)c2c(OCC(O)COc3cccc4oc(C(=O)O)cc(=O)c34)cccc2o1", "note": "[Cromolyn]", "values": [{"measurement": "Histamine reduction (%) compared to averaged histamine release of perilla oil and sesame oil", "setting": "250 μg/ml", "result": 8.41, "unit": "%"}, {"measurement": "Histamine reduction (%)", "setting": "250 μg/ml", "result": 57.61, "unit": "%"}, {"measurement": "Histamine reduction (%) compared to averaged histamine release of perilla oil and sesame oil", "setting": "500 μg/ml", "result": 6.75, "unit": "%"}, {"measurement": "Histamine reduction (%)", "setting": "500 μg/ml", "result": 55.28, "unit": "%"}, {"measurement": "Histamine (ng/ml) mean ± SD (n = 3)", "setting": "250 μg/ml", "result": "121.05 ± 0.73", "unit": "ng/mL"}, {"measurement": "Histamine (ng/ml) mean ± SD (n = 3)", "setting": "500 μg/ml", "result": "127.70 ± 13.32", "unit": "ng/mL"}, {"measurement": "Increase of percentage of histamine reduction compared to treatment with individual compounds", "setting": "range over 250 and 500 μg/ml", "result": "6.8-8.4%"}]}
